# Molecular target: DDX41 (Homo sapiens, UniProt Q9UJV9)
# Settings: labelled compound ([γ-32P]ATP)
# Chain of DDX41 (Q9UJV9 whole entry): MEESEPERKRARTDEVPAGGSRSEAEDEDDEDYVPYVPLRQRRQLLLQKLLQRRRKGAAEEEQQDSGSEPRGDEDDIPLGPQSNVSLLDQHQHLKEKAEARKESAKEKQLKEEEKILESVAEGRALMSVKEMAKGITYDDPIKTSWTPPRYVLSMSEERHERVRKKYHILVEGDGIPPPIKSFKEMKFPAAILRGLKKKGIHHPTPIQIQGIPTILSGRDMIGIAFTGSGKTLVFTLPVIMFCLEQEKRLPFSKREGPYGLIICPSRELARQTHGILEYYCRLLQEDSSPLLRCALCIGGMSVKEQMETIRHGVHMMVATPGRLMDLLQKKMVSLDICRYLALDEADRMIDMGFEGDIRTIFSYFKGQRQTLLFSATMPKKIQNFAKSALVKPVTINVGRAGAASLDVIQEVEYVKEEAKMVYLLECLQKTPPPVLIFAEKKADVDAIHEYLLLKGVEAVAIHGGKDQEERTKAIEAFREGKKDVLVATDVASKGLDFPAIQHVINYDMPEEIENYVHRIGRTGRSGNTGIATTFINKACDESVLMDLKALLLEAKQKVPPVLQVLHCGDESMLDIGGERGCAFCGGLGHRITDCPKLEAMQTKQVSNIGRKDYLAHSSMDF
structure (smiles),measurement,value
Nc1ncnc2c1ncn2[C@@H]1O[C@H](COP(=O)(O)OP(=O)(O)OP(=O)(O)O)[C@@H](O)[C@H]1O [ATP],filter binding (dot blot); ATP-agarose pull-down,we incubated the same amount of WT or R525H proteins with ATP agarose
